Assay: Human HepG2 cell viability assay in 384 well format
Type: toxicity, cell-based
Design: dose 125 nL, time 70.5 hour; concentration not given beside the values
Settings: HepG2 cells, read-out: Inhibition

Compound	cytotoxicity at 70.5 h [%]
CCN(Cc1ccncc1)C(=O)C(C)n1ccnc1C(C)C (centres undefined)	-11.1
COCCC1(CO)CCCN(Cc2ccncc2)C1 (centres undefined)	-3.98
CCN(Cc1ccncc1)c1cc(C2CCCNC2)nc(C)n1 (centres undefined)	-7.35
COCCN(C)C[C@@H]1CN(C(=O)NC2CCCCC2)C[C@@H]1CO	-8.61
Cc1cc(C(=O)N2CCNC(c3ccccc3)C2)c2ccc(F)cc2n1 (centres undefined)	-4.04
CC(C)n1cnnc1CN(C)CC1CCOC1 (centres undefined)	-11.8
O=C1OCCN1Cc1ccc(C(F)(F)F)cc1F	-6.21
CN(Cc1noc2c1CCCC2)C(=O)C1Cc2ccccc2CN1C (centres undefined)	-6.59
Cc1ccccc1C1CCN(CCn2cc(-c3nccn3C)nn2)C1 (centres undefined)	2.36
Cc1nc(NC(=O)N(C)Cc2ccoc2)nn1C	-4.45
OC1COCCN(Cc2cccc(N3CCOCC3)c2)C1 (centres undefined)	-5.01
CCOCCn1c(=O)[nH]c2cc(C(=O)N(C)Cc3cc(C)[nH]n3)ccc21	-6.23
OCc1ccc(CN2CCC(n3cc(C4CCCCC4)nn3)CC2)o1	-7.14
O=C1CC[C@@H](C(=O)N2CCC(Cn3cc(C4CCCCC4)nn3)CC2)N1	-1.59
CC(=O)NCCC1CCN(c2nc(C(C)(C)C)nc3c2cnn3C)CC1	-1.1
COc1ccc(F)c(F)c1C(=O)N1C[C@@H](CN(C)CCO)[C@@H](CO)C1	17
OCCc1ncnn1Cc1cccc(Cl)c1	44.4
O=C(NCCN1CCCC(CO)C1)c1ccc2scnc2c1 (centres undefined)	-13.1
O=C(CCC1CCN(C2CSCCSC2)CC1)NCC1CCCO1 (centres undefined)	-7.42
COc1ccccc1[C@@H]1CN(Cc2cnn(C)c2C)C[C@H]1C(=O)O	7.39
Cc1nc(CN(C)C)cc(N2CCCC(COc3ccc(F)cc3)C2)n1 (centres undefined)	-5.18
CCC(C(=O)NC(C)(C)C)n1ccc2ncccc2c1=O (centres undefined)	-17.5
COCc1nnc(C(=O)N(C)Cc2ccc(OC)cc2)o1	-0.9

Compound	cytotoxicity at 70.5 h [%]
Cc1cnn(CCC(=O)N2CCC3(CCC(=O)N(CC4CC4)C3)CC2)c1	-6.95
CN(CCCc1cnn(C)c1)Cc1cc2n(n1)CCNC2	-4.75
CC(c1cccnc1)N(C)Cc1cc2cc3c(cc2[nH]c1=O)OCO3 (centres undefined)	2.59
COc1cccn(CC(=O)N2CCC3(CCNCC3)C2)c1=O	-13.1
Cc1cc2[nH]c(CN3CCOC(Cc4ccccc4)C3)cc(=O)n2n1 (centres undefined)	18.7
COCCCN1CC2(CCCN(CCn3cc(Cl)cn3)C2)CCC1=O (centres undefined)	-21.9
Cn1ccnc1C(=O)N1CCCC1c1ccc(C(=O)N2CCOCC2)s1 (centres undefined)	-2.53
Cc1c[nH]c(CN2CCOC(c3ccc(Cl)cc3)C2)c(C)c1=O (centres undefined)	-4.57
CCCc1cncnc1N1CCC2(CCC(=O)N(C3CCCC3)C2)CC1	-12.7
CN(c1ncccc1CNC(=O)c1csnn1)C1CCCCC1	26.5
CN(Cc1ccccc1CN1CCCC1)C(=O)c1c[nH]c(=O)[nH]1	-10.8
CC1(C(=O)NCc2cccnc2Oc2ccc(F)cc2F)CCCNC1 (centres undefined)	-18.2
Cc1c(C2CCOC(C)(C)C2)nc(N)c(C#N)c1-c1ccc(O)cc1 (centres undefined)	11.3
CNC(=O)[C@@H]1C[C@H](N)CN1S(=O)(=O)c1cc(C)c(Cl)cc1C	1.05
O=C(c1c[nH]nc1-c1cccc(F)c1)N1CCNC(c2ccccc2)C1 (centres undefined)	-9.77
COc1cccc(C)c1C(=O)N1CCc2ncnc(NCCO)c2CC1	-7.07
COc1ccc(-c2nc3c([nH]2)CCNC3C(=O)O)c2ccccc12 (centres undefined)	-7.46
CN(CCCOc1ccccc1Cl)C(=O)CN1CCNC1=O	-1.34
COc1cc(CN(C)C(C)c2ccccn2)cc2c1OCO2 (centres undefined)	-13.1
O=C(NC1CC(=O)N(C2Cc3ccccc3C2)C1)c1cnccn1 (centres undefined)	-4.83
CC(=O)NC1CCN(c2cc(-c3ccccc3)nc3c(C)c(C)nn23)C1 (centres undefined)	-2.22
CCCOC1CCCN(C(=O)c2cc(CN(CC)CC)c(CC)o2)C1 (centres undefined)	17.7
Cc1ccc(-c2nnc(CCC(=O)NCc3cn(C)nc3C)o2)s1	-9.67

Compound	cytotoxicity at 70.5 h [%]
c1ccc2c(c1)CC(N1CCCN(Cc3cccc4nonc34)CC1)C2	21.6
N#CC1(C(=O)N2C[C@H]3CC[C@@H]2CN(Cc2ccncc2)C3)CCOCC1	-23.5
N#Cc1ccc(C(=O)N2C[C@@H](CN3CCCC3)C[C@H](CO)C2)cc1	-2.46
CCOCCC(=O)N(C)Cc1noc(C(C)C)n1	24.4
CCN(CC1CCOCC1)C(=O)Cn1ccccc1=O	-9.29
CNc1nc2c(c(C(=O)N3CCCC3)n1)CN(Cc1ccco1)CC2	-3.76
CNc1cc(C(=O)N2CCCCC2CCn2ccnc2C)ccn1 (centres undefined)	-2.8
O=C1CCCN1CCCC(=O)N1CCC2(CC1)[C@H](O)C[C@@H]2O	-0.254
O=C1CC(C(=O)O)C2(CCN(C(=O)NCc3ccc(Cl)cc3)CC2)N1 (centres undefined)	-2.42
CO[C@H]1C[C@@H](O)C12CCN(C(=O)CCCOc1ccccc1)CC2	-8.27
CCN(Cc1ccncc1)C(=O)CCn1c(C)cc2ccccc21	-3.9
CN(CCc1ccccn1)c1cc(N2CCCCC2)ncn1	-6.31
COc1ccc(Oc2cccc(C#N)n2)cc1CN1CCCC1	-1.4
OC1(CNCc2csc(-c3ncccn3)n2)CCCNC1 (centres undefined)	-5.29
Cc1ccccc1OCC1CCCN(C(=O)CN(C)C2CCNCC2)C1 (centres undefined)	-4.15
Cc1cc(NC(=O)CNCc2csc(-c3ncccn3)n2)ccc1Cl	-14.6
COc1ccccc1OCc1cc(C(=O)N2CCN(C(C)=O)CC2)n[nH]1	-5.97
O=C1CC(NCc2ccccn2)CN1CCc1ccc(F)cc1 (centres undefined)	20.5
COCc1nc(CNC2CCC3(CCNCC3)CC2)no1	-8.94
Cc1ncc(CN2CCCC2c2ccc(C(=O)NCc3ccoc3)s2)s1 (centres undefined)	-0.861
Cc1ccc2[nH]nc(C(=O)NCC3CCN(Cc4c[nH]cn4)C3)c2c1 (centres undefined)	-5.7
O=C(CC1CNCCO1)N1CCC(c2cc(N3CCCC3)ncn2)CC1 (centres undefined)	12.3
CCCOC1CCCN(C(=O)c2ccc(S(N)(=O)=O)cc2)C1 (centres undefined)	-3.49

Compound	cytotoxicity at 70.5 h [%]
O=C(NCc1cc(N2CCOCC2)ncn1)c1cccc(CO)n1	5.15
COc1ccc(CC2(C(=O)O)CCN(c3nc(C)ncc3C)CC2)cc1	-10.8
Cc1nc2c(NCC(C)N(C)c3ccccc3)ncnc2o1 (centres undefined)	-5.13
O=C1N(Cc2ccc(F)c(F)c2)CCCC1(O)CNCc1ncc[nH]1 (centres undefined)	-1.39
COCCc1noc(CNC2CCCC(C)(C)C2)n1 (centres undefined)	-4.63
Cc1c(Cn2ccnc2-c2cc(CN(C)C)cs2)cnn1C	3.72
Cc1csc2ncnc(N3CCC(Cn4cc(C(C)(C)N)nn4)CC3)c12	2.54
CN1CC2(CCCN(c3nc(N)nc4c3CCCC4)C2)OC1=O (centres undefined)	-10.1
CCCn1ncc(C(=O)N(C)Cc2cc(C3CC3)[nH]n2)c1C	0.995
Cc1nc(N[C@H]2COC[C@@H]2N2CCCC2)c2cnn(C)c2n1	-8.31
Cc1nc(N)sc1C(=O)N1CCC(C(O)Cc2ccccc2)CC1 (centres undefined)	-7.21
CC(C)n1cnnc1CN(C)C(=O)C1CCCN(CC(N)=O)C1 (centres undefined)	-10.5
CCC(C)N(Cc1sccc1C)C(=O)c1cc(N)ccn1 (centres undefined)	-11.9
CC(C)c1nc(CN(C)Cc2cnc(N3CCOCC3)nc2)no1	-6.44
CN(Cc1ccccc1)CC(O)Cn1cnc2sccc2c1=O (centres undefined)	-8.79
CCS(=O)(=O)N1CCC(NC(=O)c2ccccc2O)CC1	-6.17
Cc1cc(C(=O)O)cc(S(=O)(=O)Nc2ccc3c(c2)OCCO3)c1C	-3.8
CCS(=O)(=O)N1CCC(NC(=O)c2cc3ccccc3cc2O)CC1	12.9
CN(Cc1ccccc1)CC(O)Cn1cnc2ccc(Br)cc2c1=O (centres undefined)	-5.18
CCS(=O)(=O)N1CCC(NC(=O)c2cc(C)ccc2O)CC1	-5.66
CC(C#N)CN(C)Cc1nc2c(cnn2C)c(=O)[nH]1 (centres undefined)	-7.12
CC(C)CCN(CCC(C)C)Cc1nc2c(cnn2C)c(=O)[nH]1	2.1
CN(Cc1ccccc1)CC(O)Cn1cnc2cc(F)ccc2c1=O (centres undefined)	-7.28

Compound	cytotoxicity at 70.5 h [%]
Cc1ccccc1OCCCC(=O)NCC1CN(C)CCO1 (centres undefined)	-1.6
N#Cc1ccc(S(=O)(=O)NC(=O)COc2ccc3c(c2)CCC3)cc1	-1.54
CC(C)CCN(C(=O)c1nc(S(C)(=O)=O)n2ccccc12)C1CC1	-1.14
Cc1ccc(C(=O)N2CCCC(n3cccn3)C2)cc1S(C)(=O)=O (centres undefined)	0.0611
Cc1ccc2oc(C(=O)N3CCCC(n4cccn4)C3)cc2n1 (centres undefined)	21.1
Cc1cnn(C2CCCN(C(=O)c3cc4nc(C)ccc4o3)C2)c1 (centres undefined)	-5.06
c1ccc(-c2nc(CNC3CCc4ncnn4C3)cs2)cc1 (centres undefined)	0.00764
Cc1nnc2n1CCN(C(C(=O)NC(C)C)c1ccccc1)C2 (centres undefined)	19.5
CCNc1cc2c(nn1)CCN(C(=O)Cc1ccc(C)nc1)C2	-6.5
COCc1nc(C(=O)NS(=O)(=O)c2c(C)c(C)cc(C)c2C)cs1	2.47
Cc1ccc2oc(C(=O)N3CCCC(n4ccnc4C)C3)cc2n1 (centres undefined)	0.879
O=C(CCCOc1ccccc1)N1CCCC(n2cncn2)C1 (centres undefined)	2.63
N#Cc1ccc(CS(=O)(=O)NC(=O)COc2ccc3c(c2)CCC3)cc1	-5.23
COCc1nc(C(=O)NS(=O)(=O)c2ccc(F)cc2F)cs1	0.492
Cn1cc(-c2nc(CN3CCc4c(ncn4C)C3)cs2)cn1	31
CCN(CC1CCOC1)C(=O)Nc1ccc(N2CCOCC2)nc1 (centres undefined)	18.9
O=C(c1cc(C2CC2)on1)N1CCCC(n2cccn2)C1 (centres undefined)	23.8
Cn1cnc2c1CCN(Cc1csc(-c3ccccc3)n1)C2	24.1
NC(=O)C1CCN(C(=O)c2ccc(OCc3cscn3)cc2)CC1	55.1
O=C(c1cccc(OCc2cscn2)c1)N1CCOCC1	0.0866
CC(=O)N1CCC(NC(=O)N(C)Cc2c(C)noc2C)CC1	-8.21
COc1ccc(CNCc2ccnc(N3CCCC3)c2)c(OC)c1	-1.69
